A word on the IC50: it is the concentration at which inhibition is half-maximal. A higher IC50 goes with lower potency.

Our source for the IC50 values is patent US20250236613A1, “SARM1 MODULATORS, PREPARATIONS, AND USES THEREOF” (SIRONAX LTD., priority 2021, published 2025).

A value given as a limit tells only on which side of the number the result lay.

SARM1 (50-724), sequence (Q6SZW1 50-724): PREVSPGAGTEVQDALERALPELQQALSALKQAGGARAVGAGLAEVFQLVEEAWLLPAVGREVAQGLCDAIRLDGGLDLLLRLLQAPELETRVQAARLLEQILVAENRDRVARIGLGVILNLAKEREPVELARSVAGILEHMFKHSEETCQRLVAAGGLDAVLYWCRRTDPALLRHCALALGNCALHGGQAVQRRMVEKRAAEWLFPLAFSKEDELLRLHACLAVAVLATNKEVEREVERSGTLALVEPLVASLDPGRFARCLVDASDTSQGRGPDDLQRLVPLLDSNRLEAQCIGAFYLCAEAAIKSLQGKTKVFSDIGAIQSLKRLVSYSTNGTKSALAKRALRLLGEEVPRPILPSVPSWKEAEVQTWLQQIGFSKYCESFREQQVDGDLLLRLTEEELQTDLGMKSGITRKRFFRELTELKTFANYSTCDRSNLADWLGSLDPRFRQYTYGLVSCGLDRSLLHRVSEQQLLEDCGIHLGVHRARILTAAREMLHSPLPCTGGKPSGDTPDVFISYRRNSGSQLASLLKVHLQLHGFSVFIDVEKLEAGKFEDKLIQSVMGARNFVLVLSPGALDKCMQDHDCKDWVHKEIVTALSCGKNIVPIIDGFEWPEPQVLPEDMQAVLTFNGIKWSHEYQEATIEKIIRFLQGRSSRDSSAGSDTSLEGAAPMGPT

The test has as its target SARM1 (50-724) (Homo sapiens (Human), UniProt Q6SZW1). Briefly: SARM1 (50-724) enzymatic assay. It is filed as biochemical. The conditions noted are these: SARM1 inhibitory activity; 2 nM SARM1 (50-724), 200 μM NMN activator, 100 μM NAD+ substrate, 1 h, LC-MS/MS. The protocol:
The enzymatic assay was performed in a 384-well plate using Dulbecco's PBS buffer as the reaction buffer. Purified SARM1 (50-724) with a final concentration of 2 nM was pre-incubated with the test compound at 1% DMSO final assay concentration for 15 min at room temperature. The reaction was initiated by adding the mixture of 200 μM NMN as activator and 100 μM NAD^+ as substrate. After 1 h of incubation at room temperature, the reaction was terminated with 10 times volume of 70% acetonitrile, then centrifuged at 3800 rpm for 10 min. The samples were analyzed using LC-MS/MS after diluted to the proper concentration by 10 mM ammonium acetate (pH 9.75).
As for `Cc1c[nH]c(=O)cc1-c1ccc2[nH]c(=O)oc2c1` [Compound 82, 6-(5-methyl-2-oxo-1,2-dihydropyridin-4-yl)benzo[d]oxazol-2(3H)-one], the IC50 is 15 to 30 µM.
As to `CCc1ccncc1-c1ccc2[nH]c(=O)oc2c1` [Compound 83, 6-(4-ethylpyridin-3-yl)benzo[d]oxazol-2(3H)-one], the IC50 is less than 5 µM.
Then `O=c1[nH]c2ccc(-c3cccnc3)cc2o1` [Compound 84, 6-(pyridin-3-yl)benzo[d]oxazol-2(3H)-one], with less than 5 µM; and `Cc1ccncc1-c1ccc2c(c1)OCCC(=O)N2` [Compound 85, 8-(4-methylpyridin-3-yl)-2,3-dihydrobenzo[b][1,4]oxazepin-4(5H)-one], with 5 to 15 µM; and `Cc1ccncc1-c1ccc2[nH]c(=O)sc2c1` [Compound 86, 6-(4-methylpyridin-3-yl)benzo[d]thiazol-2(3H)-one], with less than 5 µM.
The figure for `O=c1[nH]c2ccc(-c3cncc(Nc4ccccc4)c3)cc2o1` [Compound 87, 6-(5-(phenylamino)pyridin-3-yl)benzo[d]oxazol-2(3H)-one] is less than 5 µM; for `Cc1ccncc1-c1ccc2[nH]c(C#N)cc2c1` [Compound 88, 5-(4-methylpyridin-3-yl)-1H-indole-2-carbonitrile] it is less than 5 µM.
The figure for `Cc1ccncc1-c1ccc2[nH]c(C#N)nc2c1` [Compound 89, 5-(4-methylpyridin-3-yl)-1H-benzo[d]imidazole-2-carbonitrile] is less than 5 µM; for `COc1ccncc1-c1ccc2[nH]c(=O)oc2c1` [Compound 90, 6-(4-methoxypyridin-3-yl)benzo[d]oxazol-2(3H)-one] it is less than 5 µM.
Take `Cc1ccncc1-c1ccc2[nH]c(=O)oc2c1F` [Compound 91, 7-fluoro-6-(4-methylpyridin-3-yl)benzo[d]oxazol-2(3H)-one]: the IC50 is 15 to 30 µM.
The figure for `Cc1ccncc1-c1ccc2[nH]nc(C#N)c2c1` [Compound 92, 5-(4-methylpyridin-3-yl)-1H-indazole 3-carbonitrile] is less than 5 µM.
Then `Cc1ccncc1-c1ccc2[nH]nc(C(F)(F)F)c2c1` [Compound 93, 5-(4-methylpyridin-3-yl)-3-(trifluoromethyl)-1H-indazole], with 5 to 15 µM.
The figure for `Cc1ccnnc1-c1ccc2[nH]c(=O)oc2c1` [Compound 94, 6-(4-methylpyridazin-3-yl)benzo[d]oxazol-2(3H)-one] is less than 5 µM; for `O=c1[nH]c2ccc(-c3cncc(Nc4cccc(O)c4)c3)cc2o1` [Compound 95, 6-(5-((3-hydroxyphenyl)amino)pyridin-3-yl)benzo[d]oxazol-2(3H)-one] it is less than 5 µM.
The compound `O=c1[nH]c2ccc(-c3cncc(Nc4cccc(Cl)c4)c3)cc2o1` [Compound 96, 6-(5-((3-chlorophenyl)amino)pyridin-3-yl)benzo[d]oxazol-2(3H)-one] came in with an IC50 of less than 5 µM.
For `COc1cccc(Nc2cncc(-c3ccc4[nH]c(=O)oc4c3)c2)c1` [Compound 97, 6-(5-((3-methoxyphenyl)amino)pyridin-3-yl)benzo[d]oxazol-2(3H)-one], the IC50 was less than 5 µM.
The figure for `Cc1ccc(Nc2cncc(-c3ccc4[nH]c(=O)oc4c3)c2)cc1` [Compound 98, 6-(5-(p-tolylamino)pyridin-3-yl)benzo[d]oxazol-2(3H)-one] is less than 5 µM.
Then `O=c1[nH]c2ccc(-c3cncc(Nc4ccc5c(c4)NCCC5)c3)cc2o1` [Compound 99, 6-(5-((1,2,3,4-tetrahydroquinolin-7-yl)amino)pyridin-3-yl)benzo[d]oxazol-2(3)-one], with less than 5 µM.
The figure for `O=c1[nH]c2ccc(-c3cncc(Nc4ccc(F)cc4)c3)cc2o1` [Compound 100, 6-(5-((4-fluorophenyl)amino)pyridin-3-yl)benzo[d]oxazol-2(3H)-one] is less than 5 µM.
On to `O=c1[nH]c2ccc(-c3cncc(Nc4cccc(F)c4)c3)cc2o1` [Compound 101, 6-(5-((3-fluorophenyl)amino)pyridin-3-yl)benzo[d]oxazol-2(3H)-one], for which the IC50 is less than 5 µM.
Take `O=c1[nH]c2ccc(-c3cncc(Nc4ccccc4F)c3)cc2o1` [Compound 102, 6-(5-((2-fluorophenyl)amino)pyridin-3-yl)benzo[d]oxazol-2(3H)-one]: the IC50 is less than 5 µM.
The figure for `CC(C)c1cccc(Nc2cncc(-c3ccc4[nH]c(=O)oc4c3)c2)c1` [Compound 103, 6-(5-((3-isopropylphenyl)amino)pyridin-3-yl)benzo[d]oxazol-2(3H)-one] is less than 5 µM; for `O=c1[nH]c2ccc(-c3cncc(Nc4ccc(Cl)cc4)c3)cc2o1` [Compound 104, 6-(5-((4-chlorophenyl)amino)pyridin-3-yl)benzo[d]oxazol-2(3H)-one] it is less than 5 µM; for `O=c1[nH]c2ccc(-c3cncc(Nc4cccnc4)c3)cc2o1` [Compound 105, 6-(5-(pyridin-3-ylamino)pyridin-3-yl)benzo[d]oxazol-2(3H)-one] it is less than 5 µM.
The compound `CC(C)(C)OC(=O)N1CCCc2ccc(Nc3cncc(-c4ccc5[nH]c(=O)oc5c4)c3)cc21` [Compound 106, tert-butyl 7-((5-(2-oxo-2,3-dihydrobenzo[d]oxazol-6-yl)pyridin-3-yl)amino)-3,4-dihydroquinoline-1(2H)-carboxylate] registered an IC50 of less than 5 µM.
Then `N#Cc1cccc(Nc2cncc(-c3ccc4[nH]c(=O)oc4c3)c2)c1` [Compound 107, 3-((5-(2-oxo-2,3-dihydrobenzo[d]oxazol-6-yl)pyridin-3-yl)amino)benzonitrile], with less than 5 µM.
Compound `Cn1cc(Nc2cncc(-c3ccc4[nH]c(=O)oc4c3)c2)cn1` [Compound 108, 6-(5-((1-methyl-1H-pyrazol-4-yl)amino)pyridin-3-yl)benzo[d]oxazol-2(3H)-one] gave an IC50 of less than 5 µM.
The figure for `CN(c1ccccc1)c1cncc(-c2ccc3[nH]c(=O)oc3c2)c1` [Compound 109, 6-(5-(methyl(phenyl)amino)pyridin-3-yl)benzo[d]oxazol-2(3H)-one] is less than 5 µM; for `CNc1cncc(-c2ccc3[nH]c(=O)oc3c2)c1` [Compound 110, 6-(5-(methylamino)pyridin-3-yl)benzo[d]oxazol-2(3H)-one] it is less than 5 µM; for `O=c1[nH]c2ccc(-c3cncc(Nc4ccncc4)c3)cc2o1` [Compound 111, 6-(5-(pyridin-4-ylamino)pyridin-3-yl)benzo[d]oxazol-2(3H)-one] it is less than 5 µM.
For the compound `O=c1[nH]c2ccc(-c3cc(Nc4ccccc4)cnn3)cc2o1` [Compound 112, 6-(5-(phenylamino)pyridazin-3-yl)benzo[d]oxazol-2(3H)-one], the IC50 is less than 5 µM.
Then `O=c1[nH]c2ccc(-c3cncc(Nc4ccccn4)c3)cc2o1` [Compound 113, 6-(5-(pyridin-2-ylamino)pyridin-3-yl)benzo[d]oxazol-2(3H)-one], with less than 5 µM; and `O=c1[nH]c2ccc(-c3cncc(Nc4cncnc4)c3)cc2o1` [Compound 114, 6-(5-(pyrimidin-5-ylamino)pyridin-3-yl)benzo[d]oxazol-2(3H)-one], with less than 5 µM; and `O=c1[nH]c2ccc(-c3cncc(Nc4nccs4)c3)cc2o1` [Compound 115, 6-(5-(thiazol-2-ylamino)pyridin-3-yl)benzo[d]oxazol-2(3H)-one], with less than 5 µM.
Then `Cc1cc(Nc2cncc(-c3ccc4[nH]c(=O)oc4c3)c2)n(C)n1` [Compound 117, 6-(5-((1,3-dimethyl-1H-pyrazol-5-yl)amino)pyridin-3-yl)benzo[d]oxazol-2(3H)-one], with less than 5 µM; and `O=c1[nH]c2ccc(-c3cncc(Nc4cccnn4)c3)cc2o1` [Compound 118, 6-(5-(pyridazin-3-ylamino)pyridin-3-yl)benzo[d]oxazol-2(3H)-one], with less than 5 µM; and `O=c1[nH]c2ccc(-c3cncc(Oc4ccccc4)c3)cc2o1` [Compound 119, 6-(5-phenoxypyridin-3-yl)benzo[d]oxazol-2(3H)-one], with less than 5 µM.
Then `Cc1ccncc1-c1ccc2[nH]c(=O)[nH]c(=O)c2c1` [Compound 120, 6-(4-methylpyridin-3-yl)quinazoline-2,4(1H,3H)-dione], with less than 5 µM.
